Some test systems named below: A498; A549; CCRF-CEM; IGROV-1; MDA-MB-231; MOLT-4; NCI-H226; OVCAR-3; SF-539; SK-MEL-28; SNB-19; T47D; TK-10; U-251; UACC-257; UO-31; COLO 205; HOP-92; OVCAR-4; OVCAR-5.
Common to all, as to assay: NCI tumour cell line growth inhibition, 48 h

The structures appear in SMILES notation.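 Growth conditions: 96-well plates. Treatment: test compound, 48 hours, 5 concentrations. Analysis: linear interpolation between bracketing concentrations; unreached endpoints set to highest concentration. GI50 is the concentration that inhibits growth by half.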 Active and inactive are the calls of the source. Rule as the data show it: active = GI50 up to about 1.1 µM and inactive = higher. A value given as a limit tells only on which side of the number the result lay.

This note sets out measurements from ChEMBL document CHEMBL1201862, “PubChem BioAssay data set” (2004).

For `Cc1ccc(/C=C2\Cc3cc(C)c(C)cc3C2=O)c(C(=O)O)c1`, the GI50 in the assay with A498 is 22.8 µM (inactive); in the assay on A549, 30.8 µM (inactive); in the assay on CCRF-CEM, 27 µM (inactive); in the assay with IGROV-1 it was 37.8 µM (inactive); with MDA-MB-231 it was 28.2 µM (inactive); in the assay with MOLT-4, 34.3 µM (inactive). For the same molecule, the GI50 with NCI-H226 is 19.3 µM (inactive); in the assay with OVCAR-3 it was 37.9 µM (inactive); in the assay on SF-539 it was 13.7 µM (inactive); in the assay with SK-MEL-28 it was 52.5 µM (inactive); in the assay with SNB-19 it was 30.9 µM (inactive); with T47D, 43.3 µM (inactive). Besides, the GI50 with TK-10 was > 100 µM (inactive); with U-251 it was 26.1 µM (inactive); in the assay with UACC-257 it was 24.5 µM (inactive); in the assay with UO-31, 29 µM (inactive).
Consider `COc1cc(C2c3cc(O)c(OC)cc3C3OCC2C3CO)ccc1O` (centres undefined), for which the GI50 with A498 was > 100 µM (inactive); in the assay with A549 it was > 100 µM (inactive); in the assay on COLO 205, > 100 µM (inactive); in the assay on HOP-92 it was 7.6 µM (inactive); in the assay with MDA-MB-231, > 100 µM (inactive); in the assay with MOLT-4, > 100 µM (inactive). In addition, the GI50 in the assay on NCI-H226, in the assay with OVCAR-3, in the assay with OVCAR-4, with OVCAR-5, with SF-539 and with SK-MEL-28 was > 100 µM (inactive) throughout. The GI50 in the assay on SNB-19, with T47D, in the assay with TK-10, in the assay on U-251 and in the assay on UO-31 was > 100 µM (inactive) throughout.
As for `CCCCCCCCCc1cccc(N2C(N)=NC(N)=NC2(C)C)c1`, the GI50 was 1.24 µM (inactive) in the assay on A498; < 0.01 µM (active) with A549; 0.197 µM (active) in the assay on CCRF-CEM; 0.0209 µM (active) in the assay on COLO 205; 1.58 µM (inactive) in the assay with HOP-92; < 0.01 µM (active) in the assay on IGROV-1. In addition, the GI50 with MDA-MB-231 was 0.302 µM (active); in the assay on MOLT-4, < 0.0273 µM (active); in the assay on NCI-H226, 1.26 µM (inactive); in the assay on OVCAR-3, 0.0547 µM (active); in the assay on OVCAR-4, < 0.01 µM (active); with SF-539, 0.0339 µM (active). Further, the GI50 was 0.871 µM (active) with SK-MEL-28; 0.528 µM (active) in the assay on T47D; 0.0304 µM (active) with TK-10; < 0.01 µM (active) with U-251; 0.0611 µM (active) in the assay on UACC-257; 1.93 µM (inactive) with UO-31.
For the molecule `COC(=O)/C=C\[C@H]1[C@H](C)N1S(=O)(=O)c1ccc(C)cc1` (some centres undefined), the GI50 with A498 was > 100 µM (inactive); with A549, > 100 µM (inactive); with CCRF-CEM it was 91 µM (inactive); in the assay on COLO 205 it was > 100 µM (inactive); with IGROV-1, > 100 µM (inactive); in the assay on MDA-MB-231, > 100 µM (inactive). The GI50 with MOLT-4, in the assay on NCI-H226, with OVCAR-3, in the assay on OVCAR-4, in the assay with OVCAR-5 and in the assay on SF-539 was > 100 µM (inactive) in each case. The GI50 in the assay with SK-MEL-28, in the assay with SNB-19, in the assay on T47D, in the assay on TK-10, with U-251 and in the assay on UACC-257 was > 100 µM (inactive) each time.
For `Cc1n[nH]c(=S)n1/N=C/c1ccc(-c2ccc(Cl)cc2)o1`, the GI50 is > 100 µM (inactive) with A498; > 100 µM (inactive) in the assay with A549; 69 µM (inactive) in the assay on HOP-92; > 100 µM (inactive) in the assay with IGROV-1; 73.5 µM (inactive) with MDA-MB-231; > 100 µM (inactive) with MOLT-4. In addition, the GI50 in the assay on NCI-H226 was > 100 µM (inactive); in the assay with OVCAR-3, > 100 µM (inactive); in the assay with OVCAR-4, > 100 µM (inactive); with OVCAR-5 it was > 100 µM (inactive); in the assay with SF-539, 77.1 µM (inactive); with SK-MEL-28, > 100 µM (inactive). For the same molecule, the GI50 with T47D is > 100 µM (inactive); in the assay on TK-10, 83.4 µM (inactive); with U-251 it was 31.6 µM (inactive); with UACC-257 it was > 100 µM (inactive); in the assay with UO-31, > 100 µM (inactive).
For the molecule `CC(=O)[C@@]1(C)CC2(CCN(C)CC2)OC1C` (some centres undefined), the GI50 with A498, in the assay with A549, in the assay with COLO 205, in the assay on HOP-92, with IGROV-1 and in the assay on MDA-MB-231 was > 100 µM (inactive) throughout. For the same molecule, the GI50 with MOLT-4, in the assay with NCI-H226, with OVCAR-3, with OVCAR-4, in the assay with OVCAR-5 and with SF-539 was > 100 µM (inactive) in each case. The GI50 with SK-MEL-28, with SNB-19, in the assay with T47D, in the assay on TK-10, in the assay on U-251 and in the assay with UACC-257 was > 100 µM (inactive) each time. The GI50 in the assay on UO-31 was > 100 µM (inactive).
Take `COC(=O)C1Cc2c([nH]c3ccccc23)-c2[nH]c3ccccc3c2CC(NC(C)=O)C(=O)NCC(=O)NCC(=O)N1` (centres undefined): the GI50 in the assay with A498, with A549, with CCRF-CEM, in the assay on COLO 205, in the assay with HOP-92 and with IGROV-1 was > 100 µM (inactive) each time. Further, the GI50 with MDA-MB-231, in the assay on MOLT-4, with NCI-H226, with OVCAR-3, in the assay on OVCAR-5 and with SF-539 was > 100 µM (inactive) each time. The GI50 in the assay on SK-MEL-28, in the assay on SNB-19, in the assay on T47D, in the assay on TK-10, in the assay on U-251 and in the assay with UACC-257 was > 100 µM (inactive) each time. The GI50 in the assay with UO-31 is > 100 µM (inactive).
On to `Cc1nc2sccn2c1/C=C1/C(=O)Nc2cccc(Cl)c21`, for which the GI50 was 87.3 µM (inactive) in the assay with A498; > 100 µM (inactive) in the assay with A549; > 100 µM (inactive) in the assay on CCRF-CEM; 71.4 µM (inactive) with COLO 205; > 100 µM (inactive) in the assay on HOP-92; 53.6 µM (inactive) in the assay on IGROV-1. Besides, the GI50 with MDA-MB-231 was 50.4 µM (inactive); in the assay on MOLT-4 it was > 100 µM (inactive); in the assay with OVCAR-3 it was > 100 µM (inactive); with OVCAR-5 it was 73.5 µM (inactive); in the assay on SF-539, > 100 µM (inactive); with SK-MEL-28, > 100 µM (inactive). For the same molecule, the GI50 is > 100 µM (inactive) with SNB-19; 38.6 µM (inactive) in the assay on T47D; > 100 µM (inactive) in the assay with TK-10; > 100 µM (inactive) with U-251; > 100 µM (inactive) with UACC-257; > 100 µM (inactive) with UO-31.
With `CCNCCC1(CC)C(=O)NC(=O)NC1=O`, the GI50 in the assay on A498, in the assay on A549, in the assay on COLO 205, in the assay with HOP-92, in the assay on IGROV-1 and in the assay with MDA-MB-231 was > 100 µM (inactive) throughout. Further, the GI50 in the assay on MOLT-4, in the assay on NCI-H226, in the assay with OVCAR-3, in the assay on OVCAR-4, with OVCAR-5 and in the assay on SF-539 was > 100 µM (inactive) in each case. The GI50 in the assay on SK-MEL-28, in the assay with SNB-19, with T47D, with TK-10, in the assay on U-251 and in the assay with UACC-257 was > 100 µM (inactive) in each case. In the assay on UO-31, the GI50 is > 100 µM (inactive).
For the molecule `COC(=O)C1=C(O)C(C(=O)OC)[C@]2(O)[C@H](C(=O)OC)[C@H]1C[C@@H](c1ccc(Cl)cc1Cl)[C@H]2C(=O)OC` (some centres undefined), the GI50 was 11.4 µM (inactive) in the assay on A498; 4.36 µM (inactive) with A549; 8.77 µM (inactive) in the assay on COLO 205; 7.96 µM (inactive) in the assay on HOP-92; 6.3 µM (inactive) in the assay with IGROV-1; 19.5 µM (inactive) with MDA-MB-231. For the same molecule, the GI50 is 2.48 µM (inactive) with MOLT-4; 2.91 µM (inactive) in the assay on NCI-H226; 5.14 µM (inactive) in the assay with OVCAR-3; 6.55 µM (inactive) with OVCAR-4; 17 µM (inactive) in the assay on OVCAR-5; 2.84 µM (inactive) in the assay on SF-539. The GI50 was 12.4 µM (inactive) in the assay with SK-MEL-28; 6.98 µM (inactive) with SNB-19; 4.83 µM (inactive) in the assay with T47D; 12.6 µM (inactive) in the assay on TK-10; 2.72 µM (inactive) in the assay on U-251; 10 µM (inactive) in the assay on UACC-257. In addition, the GI50 in the assay on UO-31 was 8.97 µM (inactive).
For the molecule `O=C(CCc1cc(O)cc(O)c1)NCCc1cc(O)cc(O)c1`, the GI50 with A498 was > 100 µM (inactive); with A549 it was > 100 µM (inactive); in the assay on CCRF-CEM it was > 10 µM (inactive); with COLO 205 it was > 100 µM (inactive); in the assay with HOP-92, > 100 µM (inactive); in the assay on IGROV-1, > 100 µM (inactive). Moreover, the GI50 in the assay on MDA-MB-231, in the assay on MOLT-4, with NCI-H226, in the assay on OVCAR-3, in the assay with OVCAR-5 and with SF-539 was > 100 µM (inactive) throughout. Also, the GI50 with SK-MEL-28, with SNB-19, in the assay on T47D, with TK-10, with U-251 and in the assay on UACC-257 was > 100 µM (inactive) each time. Further, the GI50 with UO-31 was > 100 µM (inactive).
